Laboratory results from ChEMBL document CHEMBL1125196, “Design and synthesis of P2-P1'-linked macrocyclic human renin inhibitors” (J Med Chem, 1991).

Each molecule was assayed against T1, Renin (Homo sapiens, UniProt P00797) (assay: The compound was evaluated in vitro for inhibition of human plasma renin at pH 7.4.).
T1 sequence (P00797 whole entry): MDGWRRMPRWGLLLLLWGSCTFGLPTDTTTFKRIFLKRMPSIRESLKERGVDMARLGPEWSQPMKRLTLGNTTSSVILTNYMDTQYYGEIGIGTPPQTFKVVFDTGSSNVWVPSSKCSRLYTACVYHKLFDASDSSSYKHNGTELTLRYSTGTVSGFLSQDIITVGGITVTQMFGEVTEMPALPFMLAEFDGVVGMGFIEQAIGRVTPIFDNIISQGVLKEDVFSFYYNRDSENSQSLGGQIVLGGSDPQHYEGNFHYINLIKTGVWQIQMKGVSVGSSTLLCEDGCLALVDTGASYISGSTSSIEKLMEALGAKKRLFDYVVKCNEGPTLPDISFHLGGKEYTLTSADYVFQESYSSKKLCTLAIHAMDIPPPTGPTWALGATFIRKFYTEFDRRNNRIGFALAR
Format: cell-free

| Structure (SMILES) | IC50 [µM] |
| --- | --- |
| CC(C)(C)OC(=O)N[C@@H](Cc1ccccc1)C(=O)N[C@H]1CNC(=O)CCCOC(=O)[C@H](O)[C@H](CC2CCCCC2)NC1=O | 9.2 |
| CC(C)(C)OC(=O)N[C@@H](Cc1ccccc1)C(=O)N[C@H]1CCC(=O)NCCCOC(=O)[C@H](O)[C@H](CC2CCCCC2)NC1=O | 7 |
| CC(C)(C)OC(=O)N[C@@H](Cc1ccccc1)C(=O)N[C@H]1CCC(=O)NCCC[C@@H](O)[C@H](O)[C@H](CC2CCCCC2)NC1=O | > 20 |
| CC(C)(C)OC(=O)N[C@@H](Cc1ccccc1)C(=O)N[C@H]1CCC(=O)NCCCC2(OCCO2)[C@H](O)[C@H](CC2CCCCC2)NC1=O | > 20 |
| CC(C)(C)OC(=O)N[C@@H](Cc1ccccc1)C(=O)N[C@H]1CCC(=O)NCCOC(=O)[C@H](O)[C@H](CC2CCCCC2)NC1=O | 0.61 |
| CC(C)(C)OC(=O)N[C@@H](Cc1ccccc1)C(=O)N[C@H]1CCC(=O)NCCC[C@H](O)[C@H](O)[C@H](CC2CCCCC2)NC1=O | 0.65 |
| CC(C)(C)OC(=O)N[C@@H](Cc1ccccc1)C(=O)N[C@H]1CCC(=O)NCCCC(=O)[C@H](O)[C@H](CC2CCCCC2)NC1=O | 14 |
| CC(C)(C)OC(=O)N[C@@H](Cc1ccccc1)C(=O)N[C@H]1CNC(=O)CCCCOC(=O)[C@H](O)[C@H](CC2CCCCC2)NC1=O | 0.59 |
